# Reference: patent US9399636B2, “Substituted dipyridylamines and uses thereof” (Genentech, Inc., priority 2012, dated 2016)
# pKi: −log10 of the molar value.
# Biological target: T1, DLK (Homo sapiens, UniProt Q12852)
# T1 construct: N-terminally GST-tagged DLK (catalytic domain amino acid 1-520) (Carna Bioscience); GST (N); purchased Carna Bioscience
# T1 sequence (Q12852 1-520): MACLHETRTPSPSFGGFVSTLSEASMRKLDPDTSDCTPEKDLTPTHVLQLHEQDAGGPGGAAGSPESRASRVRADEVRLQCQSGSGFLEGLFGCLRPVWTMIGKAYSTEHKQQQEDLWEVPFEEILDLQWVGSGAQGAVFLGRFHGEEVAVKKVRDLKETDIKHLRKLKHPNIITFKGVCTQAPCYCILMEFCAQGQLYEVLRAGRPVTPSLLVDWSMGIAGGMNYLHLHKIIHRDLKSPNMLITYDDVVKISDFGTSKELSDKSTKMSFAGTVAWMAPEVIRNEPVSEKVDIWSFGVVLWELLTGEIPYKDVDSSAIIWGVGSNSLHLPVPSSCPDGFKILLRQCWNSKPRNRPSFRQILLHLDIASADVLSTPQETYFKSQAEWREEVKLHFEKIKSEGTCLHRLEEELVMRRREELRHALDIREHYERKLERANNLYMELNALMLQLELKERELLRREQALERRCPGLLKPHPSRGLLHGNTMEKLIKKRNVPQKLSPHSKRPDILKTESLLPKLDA
# Assay: DLK TR-FRET assay
# Type: biochemical
# Conditions: 5 nM GST-tagged DLK (catalytic domain amino acid 1-520), 40 nM HIS-tagged MKK4 K131M substrate, 30 μM ATP, 60 minutes
# Method: DLK TR-FRET assay: DLK kinase reactions (20 μL) containing 5 nM N-terminally GST-tagged DLK (catalytic domain amino acid 1-520) (Carna Bioscience), 40 nM N-terminally HIS-tagged MKK4 K131M substrate, and 30 μM ATP in kinase reaction buffer (50 mM HEPES, pH 7.5, 0.01% Triton X-100, 0.01% Bovine γ-Globulins, 2 mM DTT, 10 mM MgCl2 and 1 mM EGTA), and testing compound 1:3 serial diluted starting at 20 uM were incubated at ambient temperature for 60 minutes in 384 well OptiPlate (Perkin Elmer). To quench kinase reactions and detect phosphorylated MKK4, 15 μL of TR-FRET antibody mixture containing 2 nM anti-phosphorylated MKK4 labeled with Europium cryptate (Cisbio) and 23 nM anti-HIS labeled with D2 (Cisbio) in detection buffer (25 mM Tris pH 7.5, 100 mM NaCl, 100 mM EDTA, 0.01% Tween-20, and 200 mM KF) was added to the reaction mixture. The detection mixture was incubated for 3 hours at ambient temperature and the TR-FRET was detected with an EnVision multilabel plate reader (Perkin-Elmer) using the LANCE/DELFIA Dual Enh label from Perkin-Elmer (excitation filter: UV2 (TRF) 320 and emission filters: APC 665 and Europium 615).
row,pKi,SMILES
1,9.70,"C[C@@H]1CCCN1c1cc(C2(C#N)CCOCC2)cc(Nc2cc(C#N)ccn2)n1 [Example 74, 2-[4-(4-Cyano-tetrahydro-pyran-4-yl)-6-((R)-2-methyl-pyrrolidin-1-yl)-pyridin-2-ylamino]-isonicotinonitrile]"
2,7.89,"N#Cc1ccnc(Nc2cc(C3(C#N)CCOCC3)cc(N3CCC3)n2)c1 [Example 75, 2-[6-Azetidin-1-yl-4-(4-cyano-tetrahydro-pyran-4-yl)-pyridin-2-ylamino]-isonicotinonitrile]"
3,7.80,"FC(F)c1ccnc(Nc2cc(C3CCN(C4COC4)CC3)cc(Cl)n2)c1 [Example 76, (6-Chloro-1′-oxetan-3-yl-1′,2′,3′,4′,5′,6′-hexahydro-[4,4′]bipyridinyl-2-yl)-(4-difluoromethyl-pyridin-2-yl)-amine]"
4,6.72,"N#Cc1ccnc(Nc2cc(C3(C#N)CCOCC3)cc(Cl)n2)c1 [Example 77, 2-[6-Chloro-4-(4-cyano-tetrahydro-pyran-4-yl)-pyridin-2-ylamino]-isonicotinonitrile]"
5,8.51,"N#Cc1ccnc(Nc2cc(C3CCOCC3)cc(Cl)n2)c1 [Example 78, 2-[6-Chloro-4-(tetrahydro-pyran-4-yl)-pyridin-2-ylamino]-isonicotinonitrile]"
6,7.46,"N#Cc1ccnc(Nc2cc(C3CCN(C4COC4)CC3)cc(N3CCCC3=O)n2)c1 [Example 79, 2-[1′-Oxetan-3-yl-6-(2-oxo-pyrrolidin-1-yl)-1′,2′,3′,4′,5′,6′-hexahydro-[4,4′]bipyridinyl-2-ylamino]-isonicotinonitrile]"
7,7.24,"Cc1cc(C2CCOCC2)cc(Nc2cc(C#N)ccn2)n1 [Example 80, 2-[6-Methyl-4-(tetrahydro-pyran-4-yl)-pyridin-2-ylamino]-isonicotinonitrile]"
8,7.94,"N#Cc1ccnc(Nc2cc(C3CCOCC3)cc(N3CC4CC3C4)n2)c1 [Example 81, 2-[6-(2-Aza-bicyclo[2.1.1]hex-2-yl)-4-(tetrahydro-pyran-4-yl)-pyridin-2-ylamino]-isonicotinonitrile]"
9,7.00,"N#Cc1ccnc(Nc2cc(C3CCOCC3)cc(N3CC4(COC4)C3)n2)c1 [Example 82, 2-[6-(2-Oxa-6-aza-spiro[3.3]hept-6-yl)-4-(tetrahydro-pyran-4-yl)-pyridin-2-ylamino]-isonicotinonitrile]"
10,8.34,"N#Cc1ccnc(Nc2cc(C3CCOCC3)cc(N3CCC4CC43)n2)c1 (stereo not shown) [Example 83, 2-[6-(2-Aza-bicyclo[3.1.0]hex-2-yl)-4-(tetrahydro-pyran-4-yl)-pyridin-2-ylamino]-isonicotinonitrile]"
11,8.80,"N#Cc1ccnc(Nc2cc(C3CCOCC3)cc(N3CC4CC4C3)n2)c1 (stereo not shown) [Example 84, 2-[6-(3-Aza-bicyclo[3.1.0]hex-3-yl)-4-(tetrahydro-pyran-4-yl)-pyridin-2-ylamino]-isonicotinonitrile]"
12,7.82,"N#Cc1ccnc(Nc2cc(C3CCOCC3)cc(N3CCC4(CCOC4)C3)n2)c1 (stereo not shown) [Example 85, 2-[6-(2-Oxa-7-aza-spiro[4.4]non-7-yl)-4-(tetrahydro-pyran-4-yl)-pyridin-2-ylamino]-isonicotinonitrile]"
13,7.92,"N#Cc1ccnc(Nc2cc(C3CCOCC3)cc(N3CC(F)C3)n2)c1 [Example 86, 2-[6-(3-Fluoro-azetidin-1-yl)-4-(tetrahydro-pyran-4-yl)-pyridin-2-ylamino]-isonicotinonitrile]"
14,7.29,"COC1CN(c2cc(C3CCOCC3)cc(Nc3cc(C#N)ccn3)n2)C1 [Example 87, 2-[6-(3-Methoxy-azetidin-1-yl)-4-(tetrahydro-pyran-4-yl)-pyridin-2-ylamino]-isonicotinonitrile]"
15,8.55,"COC1CCN(c2cc(C3CCN(C4COC4)CC3)cc(Nc3cc(C#N)ccn3)n2)C1 (stereo not shown) [Example 88, 2-[6-(3-Methoxy-pyrrolidin-1-yl)-1-oxetan-3-yl-1′,2′,3′,4′,5′,6′-hexahydro-[4,4′]bipyridinyl-2-ylamino]-isonicotinonitrile]"
16,8.10,"N#Cc1ccnc(Nc2cc(C3CCN(C4COC4)CC3)cc(N3CC(F)(F)C3)n2)c1 [Example 89, 2-[6-(3,3-Difluoro-azetidin-1-yl)-1′-oxetan-3-yl-1′,2′,3′,4′,5′,6′-hexahydro-[4,4′]bipyridinyl-2-ylamino]-isonicotinonitrile]"
17,8.72,"N#Cc1ccnc(Nc2cc(C3CCN(C4COC4)CC3)cc(N3CC4CC3C4)n2)c1 [Example 90, 2-[6-(2-Aza-bicyclo[2.1.1]hex-2-yl)-1′-oxetan-3-yl-1′,2′,3′,4′,5′,6′-hexahydro-[4,4′]bipyridinyl-2-ylamino]-isonicotinonitrile]"
18,8.17,"N#Cc1ccnc(Nc2cc(C3CCN(C4COC4)CC3)cc(N3CC(F)C3)n2)c1 [Example 91, 2-[6-(3-Fluoro-azetidin-1-yl)-1′-oxetan-3-yl-1′,2′,3′,4′,5′,6′-hexahydro-[4,4′]bipyridinyl-2-ylamino]-isonicotinonitrile]"
19,9.15,"N#Cc1ccnc(Nc2cc(C3CCN(C4COC4)CC3)cc(N3CC4CC4C3)n2)c1 (stereo not shown) [Example 92, 2-[6-(3-Aza-bicyclo[3.1.0]hex-3-yl)-1′-oxetan-3-yl-1′,2′,3′,4′,5′,6′-hexahydro-[4,4′]bipyridinyl-2-ylamino]-isonicotinonitrile]"
20,7.70,"N#Cc1ccnc(Nc2cc(C3CCN(C4COC4)CC3)cc(N3CC4(CCOC4)C3)n2)c1 [Example 93, 2-[6-(6-Oxa-2-aza-spiro[3.4]oct-2-yl)-1′-oxetan-3-yl-1′,2′,3′,4′,5′,6′-hexahydro-[4,4′]bipyridinyl-2-ylamino]-isonicotinonitrile]"
21,8.39,"N#Cc1ccnc(Nc2cc(C3CCN(C4COC4)CC3)cc(N3CC4(CCC4(F)F)C3)n2)c1 [Example 94, 2-[6-(5,5-Difluoro-2-aza-spiro[3.3]hept-2-yl)-1′-oxetan-3-yl-1′,2′,3′,4′,5′,6′-hexahydro-[4,4′]bipyridinyl-2-ylamino]-isonicotinonitrile]"
22,8.14,"N#Cc1ccnc(Nc2cc(C3CCN(C4COC4)CC3)cc(N3CCC4(CCOC4)C3)n2)c1 (stereo not shown) [Example 95, 2-[6-(2-Oxa-7-aza-spiro[4.4]non-7-yl)-1′-oxetan-3-yl-1′,2′,3′,4′,5′,6′-hexahydro-[4,4′]bipyridinyl-2-ylamino]-isonicotinonitrile]"
23,7.74,"COC1CN(c2cc(C3CCN(C4COC4)CC3)cc(Nc3cc(C#N)ccn3)n2)C1 [Example 96, 2-[6-(3-Methoxy-azetidin-1-yl)-1′-oxetan-3-yl-1′,2′,3′,4′,5′,6′-hexahydro-[4,4′]bipyridinyl-2-ylamino]-isonicotinonitrile]"
24,9.22,"N#Cc1ccnc(Nc2cc(C3CCN(C4COC4)CC3)cc(N3CC4CC(F)(F)C4C3)n2)c1 (stereo not shown) [Example 97, 2-[6-(6,6-Difluoro-3-aza-bicyclo[3.2.0]hept-3-yl)-1′-oxetan-3-yl-1′,2′,3′,4′,5′,6′-hexahydro-[4,4′]bipyridinyl-2-ylamino]-isonicotinonitrile]"
25,7.37,"N#Cc1ccnc(Nc2cc(C3CCN(C4COC4)CC3)cc(N3CC4(COC4)C3)n2)c1 [Example 98, 2-[6-(2-Oxa-6-aza-spiro[3.3]hept-6-yl)-1′-oxetan-3-yl-1′,2′,3′,4′,5′,6′-hexahydro-[4,4′]bipyridinyl-2-ylamino]-isonicotinonitrile]"
